Measured values: patent EP3818977A1, “CD93 INHIBITORS FOR USE IN THE TREATMENT OF CANCER” (Universität Bern, priority 2019, dated 2021)

Assays:
murine LSCs = test: Colony assay of murine LSCs in methylcellulose; type: cell-based, mouse
Protocol: Colony assays from BM lin^- cells of CML and naive mice and CD34^+ stem/progenitor cells of human CML patients were performed as described before ([…] et al. 2015). For mouse colony assays 10^3 FACS-purified LSKs or LSCs were plated in methylcellulose and colonies were enumerated 7 days later. For serial re-plating experiments, 10^4 cells were collected from preceding colony assays and re-plated in methylcellulose. Colonies were enumerated 7 days later. For experiments using metoclopramide (Sigma), 10^3 FACS-purified murine LSCs or 2x10^3 human CD34^+ […] methylcellulose. Colony were enumerated 7 days and 14 days later, respectively. For re-plating assays 10^4or 2x10^4 cells isolated from primary mouse and human colony assays, respectively, were subsequently replated in methylcellulose in the absence of any compound. Colony were enumerated 7 days and 14 days later, respectively.

human CD34^+CD38^- LSCs = test: Colony and re-plating assay of human CML stem/progenitor cells in semisolid culture; type: cell-based; details: 0.1µM, semisolid cultures, compared to control treatment
Protocol: Colony assays from BM lin^- cells of CML and naive mice and CD34^+ stem/progenitor cells of human CML patients were performed as described before (Riether et al. 2015).
For experiments using metoclopramide (Sigma), 10^3 FACS-purified murine LSCs or 2x10^3 human CD34^+ stem/progenitor cells were incubated overnight in 96 well V-bottom plates in the presence of 0.1 and 1µM metoclopramide or vehicle followed by plating methylcellulose. Colony were enumerated 7 days and 14 days later, respectively.
For re-plating assays 10^4or 2x10^4 cells isolated from primary mouse and human colony assays, respectively, were subsequently replated in methylcellulose in the absence of any compound. Colony were enumerated 7 days and 14 days later, respectively.

| Structure (SMILES) | colony formation of murine LSCs (murine LSCs) | clonogenic potential of CD93-competent LSCs (murine LSCs; in vitro, BL/6 LSCs cultured overnight with 1mM metoclopramide (Fig. 6H), colonies assessed 7 days later) | colony formation of CD93-deficient LSCs (murine LSCs; in vitro, Cd93^-/- LSCs cultured overnight with 1mM metoclopramide (Fig. 6H), colonies assessed 7 days later) | colony formation (human CD34^+CD38^- LSCs) | re-plating capacity (human CD34^+CD38^- LSCs; re-plating in the absence of compound) |
| --- | --- | --- | --- | --- | --- |
| CCN(CC)CCNC(=O)c1cc(Cl)c(N)cc1OC [metoclopramide, Metoclopramide] | effective in reducing colony formation of murine LSCs | reduced clonogenic potential of CD93-competent LSCs to comparable levels as CD93-deficient LSCs | without further affecting colony formation of CD93-deficient LSCs | significantly impaired | significantly impaired |
| CC(CN1c2ccccc2Sc2ccccc21)N(C)C (stereo not drawn) [promethazine, Promethazine] | effective in reducing colony formation of murine LSCs | – | – | – | – |
